From patent publication US8283378B2, “Phenylurea inhibitors of the SOAT-1 enzyme and pharmaceutical/cosmetic compositions comprised thereof” (Galderma Research & Development, priority 2007, dated 2012)

Target: T1, enzyme ACAT-1 (Homo sapiens, UniProt P35610)
T1 construct: endogenous in cells; host or cells: HepG2
T1 sequence (P35610 1-550): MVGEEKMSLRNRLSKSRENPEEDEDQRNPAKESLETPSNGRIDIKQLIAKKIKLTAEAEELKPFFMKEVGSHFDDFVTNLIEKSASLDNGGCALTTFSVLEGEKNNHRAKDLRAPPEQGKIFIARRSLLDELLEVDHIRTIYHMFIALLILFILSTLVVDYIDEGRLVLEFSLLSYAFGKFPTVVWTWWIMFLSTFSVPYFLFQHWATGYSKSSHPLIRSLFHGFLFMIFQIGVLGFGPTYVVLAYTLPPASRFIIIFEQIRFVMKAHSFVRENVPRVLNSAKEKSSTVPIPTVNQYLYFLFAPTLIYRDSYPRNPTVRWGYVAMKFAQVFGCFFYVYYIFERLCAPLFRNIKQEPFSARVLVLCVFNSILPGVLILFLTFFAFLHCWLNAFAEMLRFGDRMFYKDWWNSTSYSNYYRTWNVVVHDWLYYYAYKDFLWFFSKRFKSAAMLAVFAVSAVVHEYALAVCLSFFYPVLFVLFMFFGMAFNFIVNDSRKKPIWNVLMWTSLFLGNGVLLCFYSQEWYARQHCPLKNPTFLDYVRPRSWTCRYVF
Test: primary HepG2 enzyme test: cell-based NBD-cholesterol fluorescence assay of ACAT-1 (SOAT-1) inhibition
Conditions: HepG2 cells, NBD-cholesterol 1 μg/ml, incubation 6 h at 37° C., fluorescence excitation 490 nm / emission 540 nm
Description: The compounds (I) according to the invention, as well as their pharmaceutically acceptable salts, solvates and/or hydrates, display SOAT-1 enzyme inhibiting properties. This inhibitory effect on the SOAT-1 enzyme is measured by a primary HepG2 enzyme test, as described below.
The compounds of formula (I) according to the invention were tested to evaluate their inhibitory activity with respect to the enzyme ACAT-1 based on the following work: “Identification of ACAT1- and ACAT2-specific inhibitors using a novel, cell based fluorescence assay: individual ACAT uniqueness”, J. lipid. Res (2004) vol 45, pages 378-386. The principle of this test is based on the use of NBD-cholesterol, an analogue of cholesterol with fluorescence depending on its environment. When it is in a polar environment it is weakly fluorescent, whereas in a non-polar environment it is strongly fluorescent. Free NBD-cholesterol localizes in the cell membranes and is weakly fluorescent in this polar environment. […]
The following method is used: HepG2 cells are incubated in the presence of NBD-cholesterol (1 μg/ml) and of the test compound of formula (I) in black, transparent-bottom 96-well plates at a rate of 30000 cells per well. […] After adding 50 μl of lysis buffer (NaPO4 10 mM, Igepal 1%) the plates are agitated for 5 min and, read in fluorescence (excitation 490 nm, emission 540 nm) on a FUSION instrument (Perkin Elmer).

IC50: 71 nM
Compound: CC(C)c1cccc(C(C)C)c1NC(=O)NCC1(SCc2ccccc2)CCCCC1 [Compound (I.4), 1-(1-Benzylsulfanyl-cyclohexylmethyl)-3-(2,6-diisopropyl-phenyl)-urea]
